Experiments:
ZmHMGR mRNA = assay: Exogenous sterol feeding of maize seedlings, relative mRNA quantification of ZmHMGR; format: in vivo; details: for ZmHMGR mRNA: wild type W22 roots
[1] = tested on: Zmcyp710a8-1 mutant root metabolites; assay: Exogenous stigmasterol feeding of Zmcyp710a8-1 mutant, metabolite levels in root tissue (GC/MS); format: in vivo, maize; details: root tissue of Zmcyp710a8-1 null mutant with exogenous stigmasterol feeding, compared with W22
Source text: Relative metabolite levels in the two maize mutants compared to their wild type are shown as fold changes in Root and Shoot. […] Asterisks indicate statistical significance by Students t-test compared to Zmcyp710a8-1. *P<0.05 **P<0.01 ***P<0.001.
To identify cellular metabolites influenced by stigmasterol, non-targeted GC/MS metabolite analysis of roots and shoots of maize Zmcyp710a8 and wild type was used. A total of 29 molecular features (13 known and 16 unknown molecular features) were identified in roots and 31 features (17 known and 14 unknown molecular features) in shoots (FIG. 7). The concentration of molecular features correlated with stigmasterol content among genotypes in maize and the features belonged to similar classes including sterol, amino acid, primary metabolism, and unknown features in roots and shoots (FIG. 7).
Since changes in metabolites among the genotypes correlated with stigmasterol content, it was reasoned that exogenous stigmasterol may reverse the metabolite levels in Zmcyp710a8-1 mutant to wild type levels.

ZmSMT2 mRNA = assay: Exogenous sterol feeding of maize seedlings, relative mRNA quantification of ZmSMT2; format: in vivo; details: for ZmSMT2 mRNA: wild type W22 roots
Description: FIG. 6C-D show relative mRNA quantification of ZmHMGR and ZmSMT2 genes in Zmcyp710a8-1 background in response to various sterols (10 μM) for 4 hours in roots (FIG. 6C) and in shoots (FIG. 6D). ZmACTIN served as the reference gene for normalization. Data are means±SD. Asterisks indicate statistical significance by Students t-test compared to 0 h in FIG. 6A and to Mock in FIG. 6B, FIG. 6C, and FIG. 6D. *P<0.05 **P<0.01 ***P<0.001; ns, not significant.

[2] = roots and shoots of Zmcyp710a8-1, 10 μM sterol, 4 hours
[3] = 10 μM sterol feeding, after 4 and 8 h

Compound: CC[C@H](/C=C/[C@@H](C)[C@H]1CC[C@H]2[C@@H]3CC=C4C[C@@H](O)CC[C@]4(C)[C@H]3CC[C@]12C)C(C)C [stigmasterol]
- ZmHMGR mRNA levels (ZmHMGR mRNA; [2]): higher
- ZmHMGR mRNA (ZmHMGR mRNA; [3]): induction
- ZmHMGR mRNA (ZmHMGR mRNA; 10 μM stigmasterol, after 8 h): remained elevated
- levels of selected metabolites (sitosterol, campesterol, myo-inositol) [1]: shifted the levels of sitosterol, campesterol, and myo-inositol toward W22 levels
- ZmSMT2 mRNA levels (ZmSMT2 mRNA; [2]): higher
- ZmSMT2 mRNA (ZmSMT2 mRNA; [3]): induction
- ZmSMT2 mRNA (ZmSMT2 mRNA; 10 μM stigmasterol, after 8 h): slightly decreased

Compound: CC[C@H](CC[C@@H](C)[C@H]1CC[C@H]2[C@@H]3CC=C4C[C@@H](O)CC[C@]4(C)[C@H]3CC[C@]12C)C(C)C [sitosterol]
- ZmHMGR mRNA (ZmHMGR mRNA; [3]): did not have a significant impact
- ZmSMT2 mRNA (ZmSMT2 mRNA; [3]): did not have a significant impact

Source: patent US20240164267A1, “GENETIC MECHANISM TO ENHANCE HEALTHY STEROLS AND HARD ENDOSPERM IN SEEDS” (Iowa State University Research Foundation, Inc., priority 2022, published 2024)
